This is an account of results in ChEMBL document CHEMBL5335794, “Discovery of novel multifunctional ligands targeting GABA transporters, butyrylcholinesterase, β-secretase, and amyloid β aggregation as potential treatment of Alzheimer's disease” (Eur J Med Chem, 2023).

The structures appear in SMILES notation. The source made the active and inactive calls. No cut-off for these calls is given here.

Data set [1] concerns HEK293. The data set is described as follows: Cytotoxicity against HEK293 cells assessed as reduction in cell viability at 0.1 to 1 uM incubated for 72 hrs by MTS assay. Type of data set: toxicity, cell-based. The note with it: human, hek293, 72 h, dose 0.1-1 µM.
Data set [2] deals with Acetylcholinesterase (Electrophorus electricus) (UniProt O42275). The data set is described as follows: Inhibition of electric eel AChE using acetylthiocholine iodide as substrate at 10 uM preincubated for 5 mins followed by substrate addition and measured after 5 mins by DTNB reagent based Ellman's method relative to control. The note with it: time 10.0 min. (In general: In Ellman's method for cholinesterases, released thiocholine reacts with DTNB.)
Acetylcholinesterase (Electrophorus electricus), sequence (O42275 24-633 limits assumed): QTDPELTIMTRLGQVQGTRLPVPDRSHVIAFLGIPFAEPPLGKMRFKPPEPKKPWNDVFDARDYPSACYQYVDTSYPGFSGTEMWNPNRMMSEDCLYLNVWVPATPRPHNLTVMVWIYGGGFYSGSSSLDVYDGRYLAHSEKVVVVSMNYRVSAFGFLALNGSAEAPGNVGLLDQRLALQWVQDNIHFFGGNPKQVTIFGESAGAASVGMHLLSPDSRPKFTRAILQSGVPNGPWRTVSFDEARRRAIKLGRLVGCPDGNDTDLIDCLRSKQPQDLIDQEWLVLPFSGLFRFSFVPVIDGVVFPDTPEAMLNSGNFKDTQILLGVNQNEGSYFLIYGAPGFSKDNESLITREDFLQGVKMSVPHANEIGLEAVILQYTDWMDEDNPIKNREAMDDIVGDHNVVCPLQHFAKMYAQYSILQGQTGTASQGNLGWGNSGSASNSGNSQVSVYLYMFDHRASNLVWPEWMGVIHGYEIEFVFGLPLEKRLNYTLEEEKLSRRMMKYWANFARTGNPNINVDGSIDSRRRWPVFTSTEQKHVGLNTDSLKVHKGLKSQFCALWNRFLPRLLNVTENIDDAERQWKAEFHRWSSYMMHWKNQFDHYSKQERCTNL

The target of data set [3] is Amyloid-beta precursor protein (Homo sapiens) (UniProt P05067). The data set is described as follows: Inhibition of soluble amyloid beta40 (unknown origin) aggregation at 10 uM measured after 24 hrs by ThT fluorescence based assay relative to control.
Amyloid-beta precursor protein (Homo sapiens), sequence (P05067 whole entry): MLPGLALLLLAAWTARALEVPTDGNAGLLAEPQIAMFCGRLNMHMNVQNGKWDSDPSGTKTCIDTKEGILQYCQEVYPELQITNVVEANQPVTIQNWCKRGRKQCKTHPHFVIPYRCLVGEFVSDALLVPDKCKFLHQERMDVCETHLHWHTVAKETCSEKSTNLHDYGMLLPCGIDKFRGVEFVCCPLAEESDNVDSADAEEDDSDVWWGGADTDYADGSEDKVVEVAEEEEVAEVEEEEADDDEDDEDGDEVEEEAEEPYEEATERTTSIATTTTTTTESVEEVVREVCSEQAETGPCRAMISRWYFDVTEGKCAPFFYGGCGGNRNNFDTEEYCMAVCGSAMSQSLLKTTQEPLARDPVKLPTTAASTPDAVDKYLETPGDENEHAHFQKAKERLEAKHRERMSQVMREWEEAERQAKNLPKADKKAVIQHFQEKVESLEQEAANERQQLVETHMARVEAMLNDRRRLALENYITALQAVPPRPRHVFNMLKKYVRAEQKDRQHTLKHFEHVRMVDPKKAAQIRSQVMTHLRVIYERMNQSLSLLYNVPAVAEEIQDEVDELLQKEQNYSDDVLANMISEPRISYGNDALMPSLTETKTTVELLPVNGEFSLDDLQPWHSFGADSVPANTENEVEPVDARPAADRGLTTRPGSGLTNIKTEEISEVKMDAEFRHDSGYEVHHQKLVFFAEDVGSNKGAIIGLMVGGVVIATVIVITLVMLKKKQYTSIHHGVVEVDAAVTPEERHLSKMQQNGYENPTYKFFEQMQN
The target is the same in data set [4]. The data set is described as follows: Inhibition of soluble amyloid beta40 (unknown origin) aggregation assessed as end time of amyloid polymerization at 10 uM measured after 24 hrs by ThT fluorescence based assay (reference value: […] min).
The target is the same in data set [5]. The data set is described as follows: Inhibition of amyloid beta40 (unknown origin) aggregation at 10 uM measured every 5 mins by ThT fluorescence based assay relative to control.
Data set [6] has the same target. The data set is described as follows: Inhibition of soluble amyloid beta40 (unknown origin) aggregation assessed as time of half-aggregation at 10 uM measured after 24 hrs by ThT fluorescence based assay (reference value: […] min).
Data set [7] has the same target. The data set is described as follows: Inhibition of amyloid beta42 (unknown origin) aggregation expressed in Escherichia coli BL21 (DE3) at 10 uM measured every 5 mins by ThT fluorescence based assay relative to control.
The target of another data set is Beta-secretase 1 (Homo sapiens, UniProt P56817).
Beta-secretase 1, sequence (P56817 whole entry): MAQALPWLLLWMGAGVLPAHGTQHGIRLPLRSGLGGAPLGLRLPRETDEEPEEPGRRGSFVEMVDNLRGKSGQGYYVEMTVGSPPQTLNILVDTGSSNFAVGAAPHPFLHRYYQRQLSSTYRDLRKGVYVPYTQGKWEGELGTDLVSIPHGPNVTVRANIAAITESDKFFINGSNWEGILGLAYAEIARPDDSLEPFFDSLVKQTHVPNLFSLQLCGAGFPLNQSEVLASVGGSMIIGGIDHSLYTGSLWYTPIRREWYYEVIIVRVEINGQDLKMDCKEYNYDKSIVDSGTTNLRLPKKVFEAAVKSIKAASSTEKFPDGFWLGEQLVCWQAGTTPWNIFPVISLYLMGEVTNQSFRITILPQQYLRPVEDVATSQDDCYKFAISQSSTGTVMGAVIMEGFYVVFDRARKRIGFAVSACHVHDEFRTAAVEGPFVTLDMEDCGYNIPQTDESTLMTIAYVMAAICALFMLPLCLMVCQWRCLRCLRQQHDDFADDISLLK
Data set [8] relates to Mus musculus. The data set is described as follows: Cognitive enhancing activity in Albino Swiss (CD-1) mouse model of scopolamine induced memory deficits and amnesia assessed as increase in discrimination index at 30 mg/kg, ip pretreated for 30 mins followed by scopolamine administration and measured after 30 mins by Novel object recognition test. Type of data set: functional, organism-based. The note with it: time 60.0 min.

Data set [9] addresses Amyloid-beta precursor protein (Homo sapiens) (UniProt P05067). The data set is described as follows: Inhibition of soluble amyloid beta40 (unknown origin) aggregation assessed as nucleation constant at 10 uM measured after 24 hrs by ThT fluorescence based assay (reference value: […] 10^-4/min).
The target in data set [10] is T1, Sodium- and chloride-dependent GABA transporter 1 (Mus musculus, UniProt P31648). The data set is described as follows: Inhibition of NO 711 marker binding to mouse GAT1 by LC-ESI-MS/MS based competitive MS binding assay.
In data set [11] the test system is Mus musculus. The data set is described as follows: Cognitive enhancing activity in Albino Swiss (CD-1) mouse model of scopolamine induced cognitive dysfunction and amnesia assessed as prolongation of step-through latency in acquisition phase at 30 mg/kg, ip pretreated for 30 mins followed by scopolamine administration and measured after 30 mins by passive avoidance test. In kind it is functional, organism-based. The note with it: time 60.0 min.

Data set [12] concerns the target Amyloid-beta precursor protein (Homo sapiens) (UniProt P05067). The data set is described as follows: Inhibition of soluble amyloid beta40 (unknown origin) aggregation assessed as elongation constant at 10 uM measured after 24 hrs by ThT fluorescence based assay (reference value: […] /M/min).
The test system of data set [13] is Mus musculus. The data set is described as follows: Cognitive enhancing activity in Albino Swiss (CD-1) mouse model of scopolamine induced cognitive dysfunction and amnesia assessed as prolongation of step-through latency in retention trail at 10 to 30 mg/kg, ip pretreated for 30 mins followed by scopolamine administration and measured after 30 mins by passive avoidance test. In kind it is functional, organism-based. The settings on record: dose 10-30 mg/kg, time 60.0 min.

In another data set the test system is HepG2. The data set is described as follows: Cytotoxicity against human HepG2 cells assessed as reduction in cell viability at 0.1 to 1 uM incubated for 72 hrs by MTS assay. The note with it: hepg2, 72 h, dose 0.1-1 µM. In kind it is toxicity, cell-based. (In general: Tetrazolium assays rely on reduction of a dye to a coloured formazan, in cell work by metabolically active cells.)

In data set [14] the target is Amyloid-beta precursor protein (Homo sapiens) (UniProt P05067). The data set is described as follows: Inhibition of soluble amyloid beta40 (unknown origin) aggregation assessed as fold reduction in nucleation ratio at 10 uM measured after 24 hrs by ThT fluorescence based assay.
Data set [15] is described as follows: Inhibition of mouse GAT3 transfected in HEK293 cells assessed as reduction in [3H]-GABA uptake preincubated for 25 mins followed by [3H]-GABA addition and measured after 4 mins by liquid scintillation counting analysis. The note with it: HEK293; read-out: pIC50 (converted). In kind it is cell-based.
In data set [16] the target is Amyloid-beta precursor protein (Homo sapiens) (UniProt P05067). The data set is described as follows: Inhibition of soluble amyloid beta40 (unknown origin) aggregation assessed as lag time of amyloid polymerization at 10 uM measured after 24 hrs by ThT fluorescence based assay (reference value: […] min).
For data set [17], the target named is T2, GABA transporter 4 (Mus musculus, UniProt P31650).
T2 sequence (P31650 whole entry): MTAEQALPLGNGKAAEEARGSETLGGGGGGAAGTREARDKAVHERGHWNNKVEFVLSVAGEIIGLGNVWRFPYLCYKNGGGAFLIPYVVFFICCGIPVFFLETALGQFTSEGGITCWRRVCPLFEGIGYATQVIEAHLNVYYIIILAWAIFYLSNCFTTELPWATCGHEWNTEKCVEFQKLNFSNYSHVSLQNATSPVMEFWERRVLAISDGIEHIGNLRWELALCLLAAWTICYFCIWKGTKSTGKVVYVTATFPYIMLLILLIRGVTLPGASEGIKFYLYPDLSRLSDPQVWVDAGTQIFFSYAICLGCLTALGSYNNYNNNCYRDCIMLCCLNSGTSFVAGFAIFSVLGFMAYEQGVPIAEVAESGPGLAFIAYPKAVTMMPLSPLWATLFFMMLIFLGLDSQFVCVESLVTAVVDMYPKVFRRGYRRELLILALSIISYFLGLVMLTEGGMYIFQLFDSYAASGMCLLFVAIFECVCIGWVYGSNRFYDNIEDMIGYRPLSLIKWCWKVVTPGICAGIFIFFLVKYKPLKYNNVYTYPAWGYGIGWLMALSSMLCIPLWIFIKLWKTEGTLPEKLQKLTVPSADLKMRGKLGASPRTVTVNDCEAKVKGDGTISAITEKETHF
The data set is described as follows: Inhibition of mouse GAT4 transfected in HEK293 cells assessed as reduction in [3H]-GABA uptake preincubated for 25 mins followed by [3H]-GABA addition and measured after 4 mins by liquid scintillation counting analysis. Type of data set: cell-based. The settings on record: read-out: pIC50 (converted).

The target in data set [18] is T1, Sodium- and chloride-dependent GABA transporter 1. The data set is described as follows: Inhibition of mouse GAT1 transfected in HEK293 cells assessed as reduction in [3H]-GABA uptake preincubated for 25 mins followed by [3H]-GABA addition and measured after 4 mins by liquid scintillation counting analysis. In kind it is cell-based. The settings on record: read-out: pIC50 (converted).

Another data set deals with Cholinesterase (Equus caballus, UniProt P81908).
Cholinesterase, sequence (P81908 whole entry): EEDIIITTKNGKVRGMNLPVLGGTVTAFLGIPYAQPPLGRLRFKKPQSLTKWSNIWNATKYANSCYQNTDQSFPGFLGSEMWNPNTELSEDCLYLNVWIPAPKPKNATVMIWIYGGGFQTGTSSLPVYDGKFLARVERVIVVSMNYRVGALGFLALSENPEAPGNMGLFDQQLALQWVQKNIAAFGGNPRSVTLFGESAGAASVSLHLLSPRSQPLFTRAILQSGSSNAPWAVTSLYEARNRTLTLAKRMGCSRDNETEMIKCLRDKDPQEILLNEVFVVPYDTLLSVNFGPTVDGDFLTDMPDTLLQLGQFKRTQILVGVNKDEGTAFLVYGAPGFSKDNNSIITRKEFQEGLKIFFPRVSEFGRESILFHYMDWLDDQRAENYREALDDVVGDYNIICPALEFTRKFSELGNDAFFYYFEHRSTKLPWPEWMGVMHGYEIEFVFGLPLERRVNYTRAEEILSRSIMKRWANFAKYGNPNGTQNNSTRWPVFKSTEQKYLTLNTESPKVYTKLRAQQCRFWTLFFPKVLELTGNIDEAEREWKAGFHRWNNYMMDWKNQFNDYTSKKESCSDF
Data set [19] has as its target T3, GABA transporter 2 (Mus musculus, UniProt P31651).
T3 sequence (P31651 whole entry): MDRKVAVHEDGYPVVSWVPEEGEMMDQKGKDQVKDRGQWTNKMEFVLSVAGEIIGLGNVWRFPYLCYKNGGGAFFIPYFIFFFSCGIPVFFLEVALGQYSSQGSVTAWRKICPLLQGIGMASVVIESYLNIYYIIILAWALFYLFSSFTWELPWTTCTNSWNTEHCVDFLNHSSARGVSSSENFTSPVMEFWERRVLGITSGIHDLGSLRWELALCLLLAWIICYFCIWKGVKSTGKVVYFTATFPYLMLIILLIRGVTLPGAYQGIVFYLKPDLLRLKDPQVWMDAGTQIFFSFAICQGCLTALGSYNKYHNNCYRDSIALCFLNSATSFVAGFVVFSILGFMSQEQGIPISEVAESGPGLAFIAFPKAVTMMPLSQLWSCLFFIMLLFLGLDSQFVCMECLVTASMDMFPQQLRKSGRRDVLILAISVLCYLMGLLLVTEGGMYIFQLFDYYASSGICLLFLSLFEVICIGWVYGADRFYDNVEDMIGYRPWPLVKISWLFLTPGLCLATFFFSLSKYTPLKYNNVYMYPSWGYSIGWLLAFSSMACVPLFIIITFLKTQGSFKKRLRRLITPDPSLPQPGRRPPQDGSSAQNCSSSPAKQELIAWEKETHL
The data set is described as follows: Inhibition of mouse GAT2 transfected in HEK293 cells assessed as reduction in [3H]-GABA uptake preincubated for 25 mins followed by [3H]-GABA addition and measured after 10 mins by liquid scintillation counting analysis. In kind it is cell-based. The note with it: read-out: pIC50 (converted).

Data set [20] deals with Amyloid-beta precursor protein (Homo sapiens) (UniProt P05067). The data set is described as follows: Inhibition of soluble amyloid beta40 (unknown origin) aggregation assessed as inhibition of fibril elongation by measuring fold reduction in elongation ratio at 10 uM measured after 24 hrs by ThT fluorescence based assay.
For data set [21], the system named is HEK293. The data set is described as follows: Inhibition of mouse GAT3 transfected in HEK293 cells assessed as reduction in [3H]-GABA uptake by measuring residual activity at 100 uM relative to control. Type of data set: cell-based.
Data set [22] addresses T2, GABA transporter 4. The data set is described as follows: Inhibition of mouse GAT4 transfected in HEK293 cells assessed as reduction in [3H]-GABA uptake. In kind it is cell-based.
In data set [23] the target is T4, GABA transporter 2 (Mus musculus) (UniProt P31651).
T4 sequence (whole entry): T3 sequence (P31651 whole entry)
The data set is described as follows: Inhibition of mouse GAT2 transfected in HEK293 cells assessed as reduction in [3H]-GABA uptake by measuring residual activity at 100 uM relative to control. Type of data set: cell-based.

Data set [24] has as its target T1, Sodium- and chloride-dependent GABA transporter 1. The data set is described as follows: Inhibition of mouse GAT1 expressed in HEK293 cells assessed as reduction in [3H]-GABA uptake. In kind it is cell-based.
Data set [25] in a line: Inhibition of mouse GAT3 transfected in HEK293 cells assessed as reduction in [3H]-GABA uptake. Type of data set: cell-based.
For data set [26], the target named is T3, GABA transporter 2. The data set is described as follows: Inhibition of mouse GAT2 transfected in HEK293 cells assessed as reduction in [3H]-GABA uptake. In kind it is cell-based.

One may read the inhibition as the percentage by which the read-out fell short of the control. One may read the Ki as a dissociation constant, usually derived from enzyme kinetics or from competition with a known ligand. A low value points to a stronger hold on the target. On to `CN(CCOCCN1c2ccccc2Sc2ccccc21)C(CCN)C(=O)NCc1ccc(Cl)cc1` (configuration not stated), for which the Activity result with HEK293 [1] and with HepG2 was “Non-Toxic” each time. Also, the inhibition was 42% in data set [2], 85.5% in data set [3], 98.5% in data set [5] and 34.6% in [7]. Besides, the TIME came to 6.46 h in data set [4] and 2.91 h in data set [16]. The T1/2 in [6] turned out to be 4.68 h. Besides, the IC50 is 1570 nM on Beta-secretase 1; 6.31 µM in data set [15]; 12 µM at GABA transporter 4 [17]; 9.77 µM in data set [18]; 559 nM against Cholinesterase; 12.3 µM on GABA transporter 2 [19]. In addition, the result in the data set with Mus musculus [8] and in the data set with Mus musculus [11] was Active. Further, the K was 4.04 10^-4/min in data set [9] and 4440 M⁻¹ min⁻¹ in data set [12]. The same molecule showed a Ki in [10] of 45.7 µM. Further, in the data set with Mus musculus [13], the outcome was inactive. Besides, the fold change (FC) in data set [14] turned out to be 11; in [20], 2.
In the case of `O=C(O)C1=CN(CC/C=C/c2ccccc2-c2ccc(Cl)cc2Cl)CCC1`, the Activity is 91% in the data set on HEK293 [21] and 73% in data set [23]. For the same molecule, the IC50 was 63.1 µM on GABA transporter 4 [22] and 37 nM in data set [24] (read-out: IC50).
Consider `O=C(O)C1=CN(CC/C=C/c2ccccc2-c2ccccc2)CCC1`, for which the IC50 is 324 µM in data set [25]; 135 µM on GABA transporter 2 [26]; 288 µM on GABA transporter 4 [22]; 62 nM in data set [24] (read-out: IC50); 162 nM in data set [24] (read-out: pIC50 (converted)).
